Earlier results, collected in US20210386729A1, “METHODS FOR TREATING LIVER DISORDERS USING FXR AGONISTS” (NOVARTIS AG, priority 2016, published 2021).

Conditions: clinical studies, PBC or NASH subjects; cited from earlier work

For CC[C@H]1[C@@H](O)[C@@H]2[C@H](CC[C@]3(C)[C@@H]([C@H](C)CCC(=O)O)CC[C@@H]23)[C@@]2(C)CC[C@@H](O)C[C@@H]12 [OCA, 6α-ethyl-chenodeoxycholic acid], the pruritus is listed as “may be associated with increased pruritus”.
